Experimental data from article PMC11009625, “Antibiotic class with potent in vivo activity targeting lipopolysaccharide synthesis in Gram-negative bacteria” (Proceedings of the National Academy of Sciences of the …, 2024).
≈ marks a conversion by molar mass, not a printed value. Read-outs that look alike come from different tables or passages of the source.

How the values were obtained:
[1] = test system: lpxH mutants of EN243 (Eco MG1655 ∆tolC); experiment: MIC, lpxH mutants with reduced susceptibility in efflux-defective E. coli background; assay type: cell-based; details: Escherichia coli
Method: (§1) Minimum inhibitory concentration (MIC) values were determined according to the Clinical Laboratory Standards Institute guidelines. Frequency of resistance was determined by plating ~5 × 10^8 bacterial cells on agar-solidified media plates containing test compound at concentrations corresponding to four times the measured solid-media MIC of the strains. Colonies were counted after 24 h, restreaked onto media containing the same concentration of compound, and the MIC remeasured against the assayed compound. Genomic DNA from isolated clones was sequenced by paired-end sequencing on an Illumina MiSeq device. Complete experimental details available in SI Appendix. […]
(§2) Minimum inhibitory concentration (MIC) determination. Broth microdilution and agar dilution MIC assays were conducted according to CLSI guidelines (M07-2012). Appropriate inoculation suspension density was assessed using a Sensititre Nephelometer with a Sensititre 0.5 […]
(§3) McFarland Standard. […]
Frequency of Resistance. Frequency of resistance was assessed by spread plating between […] cfu of a freshly-grown culture of the strain of interest on plates containing a concentration of compound corresponding to 4 times the MIC of the strain (as determined by agar-dilution MIC). Serial dilutions of the same cultures were plated on non-selective media to determine the number of cells plated. The frequency of resistance was determined by dividing the number of colonies obtained on the selective plates after 24 hours of growth by the calculated total population plated. Typically 4 independently grown cultures were used to initiate 4 separate experiments, and the total combined number of obtained colonies and plated populations were used for calculations. Isolated colonies from selection plates were re-streaked on an additional plate containing the same concentration of compound used in the original selection. Clones were saved at -80 °C for subsequent analysis.
Whole-genome sequencing and data analysis. Genomic DNA of selected clones was prepared using an Epicentre MasterPure Complete DNA Purification Kit. Whole-genome sequencing libraries were prepared using an Illumina Nextera XT Library Preparation Kit. The libraries were sequenced using an Illumina MiSeq device with a V3 600-cycle reagent kit. Whole-genome sequencing data was analyzed using CLC Genomics Workbench Version 11. […]

[2] = Metabolic stability in human liver microsomes; assay type: in vitro ADME; details: pH 7.4
Method: (§4) Thermodynamic solubility was assessed by dissolving 2 to 3 mg of test compound to equilibrium in 100 mM KPO4-buffer, pH 7.4. The metabolic stability assay was performed in the presence of human and mouse liver microsomes by measurement of test compounds disappearance over time (60 min). The plasma protein binding assay, including stability estimation, was performed using the RED devices (Thermo Fisher Scientific) in the presence of human and mouse plasma. All samples from the in vitro ADME studies were quantified by liquid chromatography-triple quadrupole mass spectrometry (LC–MS/MS). The assays were performed as previously described ([36]) and the details are available in SI Appendix. Cytotoxicity was assessed by incubation of test compounds in the presence of HepG2 cells for 72 h as previously described ([37]). […]
(§5) The plate is then sealed, centrifuged and the supernatant is analysed by liquid
(§6) chromatography coupled to triple quadrupole mass spectrometry (LC-MS/MS).
(§7) Metabolic stability in the presence of human and animal liver microsomes. Metabolic stability
(§8) was determined in 0.5 mg/ml human or animal liver microsomes at a compound concentration
(§9) of 1 μM in 100 mM KPO4 buffer pH 7.4 in a total incubation volume of 500 μl. The reaction was
(§10) initiated by addition of 1 mM NADPH. At various incubation times, i.e. at 0, 5, 10, 20, 40 and 60
(§11) min, a sample was withdrawn from the incubation and the reaction was terminated by addition
(§12) of cold acetonitrile with warfarin as an internal standard. […]
(§13) Liquid chromatography coupled to triple quadrupole mass spectrometry (LC-MS/MS). The test
(§14) compounds were optimized on a Waters Acquity UPLC XEVO TQ-S micro system (Waters Corp.)
(§15) operating in multiple reaction monitoring (MRM) mode with positive or negative electrospray
(§16) ionization. Compounds were optimized by using the QuanOptimize software (Waters Corp.).
(§17) For chromatographic separation, a C18 BEH 1.7 µm column was used, with a general gradient of
(§18) 1% to 90% of mobile phase B over a total running time of 2 min. Mobile phase A consisted of
(§19) 5% acetonitrile and 0.1% formic acid in purified water, and mobile phase B of 0.1% formic acid
(§20) in 100% acetonitrile. The flow rate was set to 0.5 ml/min and 5 µL of the sample was injected.

[3] = Metabolic stability in mouse liver microsomes; assay type: in vitro ADME; details: pH 7.4
Method: as §4, §5, §6, §7, §8, §9, §10, §11, §12, §13, §14, §15, §16, §17, §18, §19, §20

Thermodynamic solubility = assay type: physicochemical; details: 37 °C, aqueous buffer, thermodynamic from solid; 100 mM KPO4-buffer, pH 7.4
Method: as §4, §5
chromatography coupled to triple quadrupole mass spectrometry (LC-MS/MS). […]
Thermodynamic solubility. Thermodynamic solubility assay utilized solid form of a test
compound. Solid test compound (~2-3 mg) was weighed in a glass HPLC vial and 100 mM KPO4-
buffer, pH 7.4 was added to give a theoretical max concentration if everything is dissolved of ~5-
6 mg/ml. The vial was incubated at 900 rpm, 37 °C in a rotational shaker for 24h. After the
incubation an aliquot (200 µl) was transferred to a glass insert and centrifuged at 10 000xg, 37 °C
for 20 min to separate any solid material from the solution. The supernatant was transferred to
a new HPLC vial and analysed by liquid chromatography coupled to triple quadrupole mass
as §13, §14, §15, §16, §17, §18, §19, §20

[4] = test system: clinical E. coli isolates (n=111); experiment: MIC distribution and MIC90, clinical E. coli isolates; assay type: cell-based; details: Escherichia coli; n=111, isolates from Spain, Poland, Denmark and Wales
Method: as §1, §2, §3
To determine the […]
genotype of MDR strains from the ENABLE strain collection, de novo assembled contigs were analyzed using ResFinder (12–14) […]
MIC distribution versus E. coli (n=111)
Clinical Isolates from Spain, Poland, Denmark and Wales
Figure S4. MIC distribution and MIC90 versus clinical E. coli isolates
MIC distribution versus K. pneumoniae (n=104)
Figure S5. MIC distribution and MIC90 versus clinical K. pneumoniae isolates […]

SMILES | MIC ([1]; MG1655, read-out: MIC CH6045) | MIC ([1]; MG1655, read-out: MIC CH6047) | MIC ([1]; MG1655, read-out: MIC CH6048) | MIC ([1]; MG1655, read-out: MIC CH6051) | MIC ([1]; MG1655, read-out: MIC CH7010) | MIC ([1]; MG1655, read-out: MIC CH7011) | MIC ([1]; MG1655, read-out: MIC CH7012) | MIC ([1]; MG1655, read-out: MIC CH7013) | MIC ([1]; MG1655, read-out: MIC CH7015) | MIC ([1]; MG1655, read-out: MIC CH7016) | MIC ([1]; MG1655, read-out: MIC CH8845) | MIC ([1]; MG1655, read-out: MIC CH8846) | MIC ([1]; MG1655, read-out: MIC CH8847) | MIC ([1]; MG1655, read-out: MIC CH8848) | MIC ([1]; MG1655, read-out: MIC CH8850) | MIC ([1]; MG1655, read-out: MIC CH8851) | MIC ([1]; MG1655, read-out: MIC CH8853) | microsomal CLint at 1 µM [2] | microsomal CLint at 1 µM [3] | solubility thermodynamic at 24 h (Thermodynamic solubility) | also measured
CC(=O)N1CCc2cc(S(=O)(=O)N3CCN(c4cccc(C(F)(F)F)c4)CC3)ccc21 [AZ1, reference compound] | 2 µg/mL (≈ 4.41 µM) | > 64 µg/mL | 0.5 µg/mL (≈ 1.1 µM) | > 64 µg/mL | 2 µg/mL (≈ 4.41 µM) | 2 µg/mL (≈ 4.41 µM) | 4 µg/mL (≈ 8.82 µM) | 64 µg/mL (≈ 141 µM) | > 64 µg/mL | 2 µg/mL (≈ 4.41 µM) | 2 µg/mL (≈ 4.41 µM) | 2 µg/mL (≈ 4.41 µM) | > 64 µg/mL | 4 µg/mL (≈ 8.82 µM) | 2 µg/mL (≈ 4.41 µM) | 1 µg/mL (≈ 2.21 µM) | 2 µg/mL (≈ 4.41 µM) |  |  |  | MIC ([1]; MG1655, read-out: MIC CH8854): 2 µg/mL (≈ 4.41 µM); MIC ([1]; MG1655, read-out: MIC CH8855): > 64 µg/mL; MIC ([1]; MG1655, read-out: MIC CH8856): > 64 µg/mL; MIC ([1]; MG1655, read-out: MIC CH8868): > 64 µg/mL; MIC ([1]; MG1655, read-out: MIC CH8869): 0.125 µg/mL (≈ 0.276 µM); MIC ([1]; MG1655, read-out: MIC CH8870): > 64 µg/mL; MIC ([1]; MG1655, read-out: MIC CH8871): > 64 µg/mL
CN(c1ccc(CNCCN)cc1C(=O)Nc1ccc(S(=O)(=O)N2CCN(c3cc(Cl)cc(Cl)c3)CC2)cc1)S(C)(=O)=O [EBL-3025] |  |  |  |  |  |  |  |  |  |  |  |  |  |  |  |  |  | 42.2 µL/min/mg | 31 µL/min/mg | 4 µM (≈ 2.68 µg/mL) | 
Cc1cc(C#N)nc(N2CCN(S(=O)(=O)c3ccc(NC(=O)c4ccccc4N(C)S(C)(=O)=O)cc3)CC2)n1 [EBL-3339] |  |  |  |  |  |  |  |  |  |  |  |  |  |  |  |  |  | 551 µL/min/mg | 625 µL/min/mg | 1.2 µM (≈ 0.684 µg/mL) | 
Cc1cc(C#N)nc(N2CCN(S(=O)(=O)c3ccc(NC(=O)c4cc(CNCCCN)ccc4N(C)S(C)(=O)=O)cc3)CC2)n1.Cl.Cl [EBL-3599] |  |  |  |  |  |  |  |  |  |  |  |  |  |  |  |  |  | < 5 µL/min/mg | < 5 µL/min/mg | 1530 µM | MIC90 [4]: 4 µg/mL
Cc1cc(C#N)nc(N2CCN(S(=O)(=O)c3ccc(NC(=O)c4cc(CN5CC(CN)C5)ccc4N(C)S(C)(=O)=O)cc3)CC2)n1 [EBL-3647] |  |  |  |  |  |  |  |  |  |  |  |  |  |  |  |  |  | 3.1 µL/min/mg | < 5 µL/min/mg | 1090 µM (≈ 728 µg/mL) | MIC90 [4]: 4 µg/mL (≈ 5.99 µM)
CN(c1ccccc1C(=O)Nc1ccc(S(=O)(=O)N2CCCCC2)cc1)S(C)(=O)=O [JEDI-852] | 64 µg/mL (≈ 142 µM) | > 64 µg/mL | 32 µg/mL (≈ 70.9 µM) | > 64 µg/mL | 2 µg/mL (≈ 4.43 µM) | 16 µg/mL (≈ 35.4 µM) | 16 µg/mL (≈ 35.4 µM) | > 64 µg/mL | 32 µg/mL (≈ 70.9 µM) | 16 µg/mL (≈ 35.4 µM) | 32 µg/mL (≈ 70.9 µM) | 32 µg/mL (≈ 70.9 µM) | > 64 µg/mL | > 64 µg/mL | > 64 µg/mL | 8 µg/mL (≈ 17.7 µM) | > 64 µg/mL |  |  |  | MIC ([1]; MG1655, read-out: MIC CH8854): > 64 µg/mL; MIC ([1]; MG1655, read-out: MIC CH8855): > 64 µg/mL; MIC ([1]; MG1655, read-out: MIC CH8856): > 64 µg/mL; MIC ([1]; MG1655, read-out: MIC CH8868): > 64 µg/mL; MIC ([1]; MG1655, read-out: MIC CH8869): 4 µg/mL (≈ 8.86 µM); MIC ([1]; MG1655, read-out: MIC CH8870): 32 µg/mL (≈ 70.9 µM); MIC ([1]; MG1655, read-out: MIC CH8871): > 64 µg/mL
CN(c1ccccc1C(=O)Nc1ccc(S(=O)(=O)N2CCN(c3cccc(C(F)(F)F)c3)CC2)cc1)S(C)(=O)=O [JEDI-1444] | 0.25 µg/mL (≈ 0.419 µM) | 1 µg/mL (≈ 1.68 µM) | 0.064 µg/mL (≈ 0.107 µM) | > 2 µg/mL | 0.064 µg/mL (≈ 0.107 µM) | 0.25 µg/mL (≈ 0.419 µM) | 0.064 µg/mL (≈ 0.107 µM) | 0.125 µg/mL (≈ 0.21 µM) | 0.064 µg/mL (≈ 0.107 µM) | 0.125 µg/mL (≈ 0.21 µM) | 1 µg/mL (≈ 1.68 µM) | 0.25 µg/mL (≈ 0.419 µM) | > 2 µg/mL | 0.5 µg/mL (≈ 0.838 µM) | 0.5 µg/mL (≈ 0.838 µM) | 0.25 µg/mL (≈ 0.419 µM) | 0.25 µg/mL (≈ 0.419 µM) | 209 µL/min/mg | 126 µL/min/mg | 0.21 µM (≈ 0.125 µg/mL) | MIC ([1]; MG1655, read-out: MIC CH8854): 0.25 µg/mL (≈ 0.419 µM); MIC ([1]; MG1655, read-out: MIC CH8855): > 2 µg/mL; MIC ([1]; MG1655, read-out: MIC CH8856): > 2 µg/mL; MIC ([1]; MG1655, read-out: MIC CH8868): 2 µg/mL (≈ 3.35 µM); MIC ([1]; MG1655, read-out: MIC CH8869): 0.064 µg/mL (≈ 0.107 µM); MIC ([1]; MG1655, read-out: MIC CH8870): 0.25 µg/mL (≈ 0.419 µM); MIC ([1]; MG1655, read-out: MIC CH8871): 2 µg/mL (≈ 3.35 µM)
